How the values were obtained:
[1] = system: human gastric cancer cells BGC-823; assay: MTT growth inhibition, BGC-823 cells; type: cell-based; details: 72 h after treatment, read-out: Drug concentration (IC50) at which 50% cancer cells survived
Source text: (§1) Cell lines and cell culture: human lung cancer cells A549 and H460, human breast cancer cells MCF-7 and MDA-MB-231, human gastric cancer cells BGC-823, human prostate cancer cells PC-3, human chronic leukemia cells K562, human lymphoma cells U937, human liver cancer cells SMMC7721 and HepG2, human colon cancer cells HT29, human pancreatic cancer cells PANC-1 and BxPC3, human cervical cancer Hela cell lines, human brain tumor cells Daoy, human neuroma cells D54 and human oral epidermoid cancer cells KBV200 line with strong drug resistance, mouse melanoma cells B16, and highly metastatic Lewis lung cancer cell lines were purchased from American Type Culture Collection of the U.S. These cells were cultured with DMEM and RPMI-1640 culture solutions separately.
(§2) The procedure was as follows:
(§3) (1) 0.25% trypsin was used to digest cancer cells in a logarithmic growth phase to prepare a single-cell suspension, the concentration of cells was adjusted to 5×10^4/mL, and the adjusted suspension was inoculated into a 96-well culture plate with 100 μl per well;
(§4) (2) The culture plate was transferred into a 37° C. incubator with a saturated humidity and 5% of CO2 and cultured for 24 h; the compounds and the intermediates thereof obtained in embodiments 1-7 and the compound as represented by formula (IIIa) or the positive control anti-cancer drug with the concentration of 1-1000 μM/L were added to enable the final concentration to be 0.1-1500 μM/L. Control wells (only added with 200 μl of cell suspension) and drug-free blank control wells (containing the solvent of 0.01% DMSO) were set, each group included 8 wells, and the plate was placed into the 37° C. incubator with saturated humidity and 5% of CO2 for culturing;
(§5) (3) The 96-well plate was taken out at 48 h and 72 h after dosing, the original culture medium was carefully removed by suction, 100 μl of serum-free DMEM culture medium and 10 μl of MTT (5 mg/mL) solution were added in each well. The plate was continuously cultured for another 4 h and then the culture was terminated;
(§6) (4) The supernatant in the wells was carefully removed by suction, each well was added with 150 μl of DMSO and shaked at room temperature for 10-15 min to fully dissolve crystals.
(§7) (5) Colorimetric analysis: the wavelength was selected as 570 nm, the light absorbance (A value) of each well was determined on the microplate reader and the results were recorded; the experiment was repeated for three times;
(§8) (6) the experimental results were calculated according to the following formula: relative survival rate=(A value of each experimental group/A value of cell control group)×100%
(§9) Calculation of median-effect concentration (IC50, namely the drug concentration at which the inhibition rate is 50%, also known as half inhibitory concentration):
(§10) IC50 of the detected component was calculated by using a regression equation.

human neuroma cells D54 = assay: MTT growth inhibition, D54 cells; type: cell-based; details: Homo sapiens, 72 h after treatment, read-out: Drug concentration (IC50) at which 50% cancer cells survived
Source text: as §1, §2, §3, §4, §5, §6, §7, §8, §9, §10

[2] = system: human breast cancer cells MDA-MB231 xenograft; assay: In-vivo growth of MDA-MB231 xenografts in nude mice; design: species or system BALB/c nude mice; details: Mus musculus, MDA-MB-231, ip, MB-231 xenograft, vs DMSO solvent control, read-out: Curative effect (inhibition rate %) of tumor weight; for inhibition in vivo at 60 mg/kg: 60 mg/kg intraperitoneal once a day; for inhibition in vivo at 90 mg/kg: 90 mg/kg intraperitoneal once a day
Description: RPMI1640 and DMEM culture solutions: Hyclone Company; inactivated fetal bovine serum: Hyclone Company, preserved at −20° C.; trypsin: Amersco Company; and 0.4% trypan blue: Sigma Company;
(3) Observation of growth of tumors in nude mice: the activities (including food intake, traits of urine and stool, mental state and the like) of the nude mice and the tumor growth time and growth situation of the transplanted tumors were observed every day, the body weight and the size of the tumors were measured once every 2-3 days. The long diameter a and the short diameter b (mm) of each tumor were measured by a vernier caliper to calculate the volume, wherein the volume V=π1/2·ab^2 (mm^3);
(4) sacrifice of animals: the mice were anesthetized and photoed after treatment experiments; the nude mice were sacrificed by breaking neck, the tumor tissues were stripped under sterile conditions and the weight of the tumors was weighed; and the effects of the drugs on pathology and toxicity of the various organs and tissues were detected.

HDAC4 = assay: Western Blotting, HDAC4 level; type: cell-based; details: human liver cancer cells, Lewis lung cancer cells and other cancer cell lines and tumor tissues, read-out: Effective concentration (IC50) for inhibition of HDAC4
Source text: (§11) Antibodies: primary antibodies of VEGFR, EGFR, c-Met, K-Ras, H-Ras, Akt, NF-κB, Cyclin D1, ER-alpha, Dvl-1, Dvl-2, Dvl-3, MMP-9, MMP2, β-catenin, Bcl-2, Bax, p53, p21, E-cadherin and Caspase3 protein, purchased from American Cell Signaling Technology Company and Santa Cruz Technology Company; and H3 acetylation, H4 acetylation and HDAC (HDAC3, HDAC4 and the like) Antibody Sample Kits, purchased from Cell Signaling Technology Company of the U.S.
(§12) (3) polyacrylamide gel electrophoresis (SDS-PAGE): an equal amount of protein lysate sample was used to separate protein, film transfer, and blocking, treated with appropriate primary antibodies and secondary antibodies in sequence, and the film was washed, then the color was developed with ECL kit, and a blot protein band was detected by exposure of an X-ray film; and a Gel-Pro Analyzer was used for quantitative analysis of gray degree, optical density value of the control group and the drug treatment group in various concentration were respectively compared with that of internal reference, the obtained ratios were respectively compared with the control group, and the protein expression level was semi-quantified.

EGFR = assay: Western Blotting, EGFR level; type: cell-based; details: human liver cancer cells, Lewis lung cancer cells and other cancer cell lines and tumor tissues, read-out: Effective concentration (IC50) for inhibition of EGFR
Source text: as §11, §12

VEGFR1 = assay: Western Blotting, VEGFR1 level; type: cell-based; details: human liver cancer cells, Lewis lung cancer cells and other cancer cell lines and tumor tissues, read-out: Effective concentration (IC50) for inhibition of VEGFR1
Source text: as §11, §12

p53 = assay: Western Blotting, increase of p53 level; type: cell-based; details: liver cancer cells, Lewis lung cancer cells and other cancer cell lines and tumor tissue protein lysates, 48 h treatment, read-out: Effective concentration to increase p53 by 50%
Source text: as §11, §12

SMILES	IC50 [1] [µM]	IC50 (human neuroma cells D54) [µM]	inhibition in vivo at 60 mg/kg [2] [%]	inhibition in vivo at 90 mg/kg [2] [%]	IC50 (HDAC4) [µM]	IC50 (EGFR) [µM]	IC50 (VEGFR1) [µM]	EC50 (p53) [µM]
CCNC(=O)CC[C@H](N)C(=O)OC [Compound IIa, theanine methyl ester]	310	400	31.1	36.1	–	–	–	–
CCNC(=O)CCC(NC(=O)c1cc2cc([N+](=O)[O-])ccc2oc1=O)C(=O)OCC (stereo in doubt) [Compound If, (R)-2-(6-nitro-2-oxo-2H-benzopyran-3-carboxamido)-5-ethylamino-5-oxo-pentanoic acid ethyl ester]	115	105	52.6	62.3	< 45	< 100	< 90	< 65
CCNC(=O)CC[C@@H](NC(=O)c1cc2cc(Br)cc(Br)c2oc1=O)C(=O)OCC [Compound Ih, (R)-2-(6,8-dibromo-2-oxo-2H-benzopyran-3-carboxamido)-5-ethylamino-5-oxo-pentanoic ethyl ester]	85	87	55.1	75.1	< 50	< 100	< 100	< 70
CCNC(=O)CCC(NC(=O)c1cc2ccccc2oc1=O)C(=O)OC (stereo not drawn) [Compound Ia, methyl 5-ethylamino-5-oxo-2-(2-oxo-2H-benzopyran-3-carboxamido)pentanoate]	123	160	50.1	60.1	< 65	< 125	< 125	< 125
CCNC(=O)CC[C@@H](NC(=O)c1cc2cc(Cl)ccc2oc1=O)C(=O)OCC [Compound Ic, (R)-2-(6-CI-2-oxo-2H-benzopyran-3-carboxamido)-5-ethylamino-5-oxo-pentanoic acid ethyl ester]	66	98	54.1	65.5	< 50	< 100	< 100	< 100
CCNC(=O)CCC(NC(=O)c1cc2ccccc2oc1=O)C(=O)OCC (stereo not drawn) [Compound Ib, ethyl 5-ethylamino-5-oxo-2-(2-oxo-2H-benzopyran-3-carboxamido)pentanoate]	127	165	59.1	69.1	< 60	< 120	< 120	< 120
CCNC(=O)CCC(NC(=O)c1cc2cc(F)ccc2oc1=O)C(=O)OCC (stereo in doubt) [Compound Ie, (R)-2-(6-F-2-oxo-2H-benzopyran-3-carboxamido)-5-ethylamino-5-oxo-pentanoic acid ethyl ester]	143	150	50.9	60.9	< 50	< 110	< 110	< 100
CCNC(=O)CC[C@H](N)C(=O)OCC [Compound IIb, theanine ethyl ester]	600	300	44.5	47.8	–	–	–	–
CCNC(=O)CC[C@@H](NC(=O)c1cc2cc(Cl)cc(Cl)c2oc1=O)C(=O)OCC [Compound Ig, (R)-2-(6,8-dichloro-2-oxo-2H-benzopyran-3-carboxamido)-5-ethylamino-5-oxo-pentanoic ethyl ester]	60	79	59.1	72.1	< 50	< 100	< 100	< 70
CCNC(=O)CC[C@@H](NC(=O)c1cc2cc(Br)ccc2oc1=O)C(=O)OCC [Compound Id, (R)-2-(6-Br-2-oxo-2H-benzopyran-3-carboxamido)-5-ethylamino-5-oxo-pentanoic acid ethyl ester]	65	92	53.1	66.7	< 50	< 100	< 100	< 100

— patent publication US9518038B2, “Condensation product of theanine derivative and carboxylic acid coumarin derivative, its intermediate, preparation method and use thereof” (SHANDONG YINGDONG YINGHAO BIOTECHNOLOGY, INC., priority 2012, dated 2016)
